# Values of other authors as cited in patent US10716774B1, “Pharmaceutical compositions containing isotretinoin with improved dissolution profile and enhanced stability” (Yale Pharmaceuticals LLC, priority 2018, dated 2020).
# Settings: after multiple dosing, in man
smiles,measurement,value
CC1=C(/C=C/C(C)=C/C=C/C(C)=C/C(=O)O)C(C)(C)CCC1=O [4-oxo-isotretinoin],plasma concentration relative to that of the parent drug,about 4 fold
